Test results from publication PMC6149898, “GPCR Modulation of Thieno[2,3-b]pyridine Anti-Proliferative Agents” (Molecules : A Journal of Synthetic Chemistry and Natural …, 2017).

Legend:
CNR2 = CNR2 (Homo sapiens, UniProt P34972); assay: gpcrMAX PathHunter beta-arrestin
LE:HL-60(TB) = system: LE:HL-60(TB); design: method as in earlier work; settings: NCI-60 panel; ref [4],[5],[6],[7]; cited from earlier work
CX3CR1 = CX3CR1 (Homo sapiens, UniProt P49238); assay: gpcrMAX PathHunter beta-arrestin
P2RY6 = P2RY6 (Homo sapiens, UniProt Q15077); assay: gpcrMAX PathHunter beta-arrestin
DRD2L = DRD2L (Homo sapiens, UniProt P14416); assay: gpcrMAX PathHunter beta-arrestin
ME:MALME-3M = system: ME:MALME-3M; design: method as in earlier work; settings: NCI-60 panel; ref [4],[5],[6],[7]; cited from earlier work
CCR9 = CCR9 (Homo sapiens, UniProt P51686); assay: gpcrMAX PathHunter beta-arrestin
OPRD1 = OPRD1 (Homo sapiens, UniProt P41143); assay: gpcrMAX PathHunter beta-arrestin
MLNR = MLNR (Homo sapiens, UniProt O43193); assay: gpcrMAX PathHunter beta-arrestin
LC:NCI-H522 = system: LC:NCI-H522; design: method as in earlier work; settings: NCI-60 panel; ref [4],[5],[6],[7]; cited from earlier work
FSHR = FSHR (Homo sapiens, UniProt P23945); assay: gpcrMAX PathHunter beta-arrestin
OV:NCI/ADR-RES = system: OV:NCI/ADR-RES; design: method as in earlier work; settings: NCI-60 panel; ref [4],[5],[6],[7]; cited from earlier work
LE:MOLT-4 = system: LE:MOLT-4; design: method as in earlier work; settings: NCI-60 panel; ref [4],[5],[6],[7]; cited from earlier work
ADRB1 = ADRB1 (Homo sapiens, UniProt P08588); assay: gpcrMAX PathHunter beta-arrestin
ME:UACC-62 = system: ME:UACC-62; design: method as in earlier work; settings: NCI-60 panel; ref [4],[5],[6],[7]; cited from earlier work
ME:MDA-MB-435 = system: ME:MDA-MB-435; design: method as in earlier work; settings: NCI-60 panel; ref [4],[5],[6],[7]; cited from earlier work
UTR2 = UTR2 (Homo sapiens, UniProt Q9UKP6); assay: gpcrMAX PathHunter beta-arrestin
PROKR2 = PROKR2 (Homo sapiens, UniProt Q8NFJ6); assay: gpcrMAX PathHunter beta-arrestin
CCR10 = CCR10 (Homo sapiens, UniProt P46092); assay: gpcrMAX PathHunter beta-arrestin
BR:HS 578T = system: BR:HS 578T; design: method as in earlier work; settings: NCI-60 panel; ref [4],[5],[6],[7]; cited from earlier work
PROKR1 = PROKR1 (Homo sapiens, UniProt Q8TCW9); assay: gpcrMAX PathHunter beta-arrestin
GLP2R = GLP2R (Homo sapiens, UniProt O95838); assay: gpcrMAX PathHunter beta-arrestin
HRH3 = HRH3 (Homo sapiens, UniProt Q9Y5N1); assay: gpcrMAX PathHunter beta-arrestin
CO:HCT-116 = system: CO:HCT-116; design: method as in earlier work; settings: NCI-60 panel; ref [4],[5],[6],[7]; cited from earlier work
CCKBR = CCKBR (Homo sapiens, UniProt P32239); assay: gpcrMAX PathHunter beta-arrestin
CHRM1 = CHRM1 (Homo sapiens, UniProt P11229); assay: gpcrMAX PathHunter beta-arrestin
CRTH2 = CRTH2 (Homo sapiens, UniProt Q9Y5Y4); assay: gpcrMAX PathHunter beta-arrestin
P2RY12 = P2RY12 (Homo sapiens, UniProt Q9H244); assay: gpcrMAX PathHunter beta-arrestin
CALCR-RAMP2 = CALCR-RAMP2 (Homo sapiens, UniProt O60895+P30988); assay: gpcrMAX PathHunter beta-arrestin
PTGER2 = PTGER2 (Homo sapiens, UniProt P43116); assay: gpcrMAX PathHunter beta-arrestin
EDG3 = EDG3 (Homo sapiens, UniProt Q99500); assay: gpcrMAX PathHunter beta-arrestin
MCHR2 = MCHR2 (Homo sapiens, UniProt Q969V1); assay: gpcrMAX PathHunter beta-arrestin
CALCR = CALCR (Homo sapiens, UniProt P30988); assay: gpcrMAX PathHunter beta-arrestin
AVPR1A = AVPR1A (Homo sapiens, UniProt P37288); assay: gpcrMAX PathHunter beta-arrestin
OPRK1 = OPRK1 (Homo sapiens, UniProt P41145); assay: gpcrMAX PathHunter beta-arrestin
VIPR2 = VIPR2 (Homo sapiens, UniProt P41587); assay: gpcrMAX PathHunter beta-arrestin
SSTR1 = SSTR1 (Homo sapiens, UniProt P30872); assay: gpcrMAX PathHunter beta-arrestin
CO:HT29 = system: CO:HT29; design: method as in earlier work; settings: NCI-60 panel; ref [4],[5],[6],[7]; cited from earlier work
TACR2 = TACR2 (Homo sapiens, UniProt P21452); assay: gpcrMAX PathHunter beta-arrestin
TACR1 = TACR1 (Homo sapiens, UniProt P25103); assay: gpcrMAX PathHunter beta-arrestin
Sequence of TACR1 (P25103 whole entry): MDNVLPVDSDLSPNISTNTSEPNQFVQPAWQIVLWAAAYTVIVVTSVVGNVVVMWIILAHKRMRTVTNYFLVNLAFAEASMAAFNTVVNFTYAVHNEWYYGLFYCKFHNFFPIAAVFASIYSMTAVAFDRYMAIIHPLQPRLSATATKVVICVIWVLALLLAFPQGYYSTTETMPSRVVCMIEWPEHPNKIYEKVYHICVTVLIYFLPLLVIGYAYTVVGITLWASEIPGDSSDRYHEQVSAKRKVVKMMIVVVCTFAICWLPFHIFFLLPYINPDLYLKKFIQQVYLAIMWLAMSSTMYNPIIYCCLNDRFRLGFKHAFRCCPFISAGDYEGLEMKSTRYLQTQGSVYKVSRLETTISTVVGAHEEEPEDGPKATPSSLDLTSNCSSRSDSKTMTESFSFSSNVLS

Sequence of P2RY12 (Q9H244 whole entry, one chain of several): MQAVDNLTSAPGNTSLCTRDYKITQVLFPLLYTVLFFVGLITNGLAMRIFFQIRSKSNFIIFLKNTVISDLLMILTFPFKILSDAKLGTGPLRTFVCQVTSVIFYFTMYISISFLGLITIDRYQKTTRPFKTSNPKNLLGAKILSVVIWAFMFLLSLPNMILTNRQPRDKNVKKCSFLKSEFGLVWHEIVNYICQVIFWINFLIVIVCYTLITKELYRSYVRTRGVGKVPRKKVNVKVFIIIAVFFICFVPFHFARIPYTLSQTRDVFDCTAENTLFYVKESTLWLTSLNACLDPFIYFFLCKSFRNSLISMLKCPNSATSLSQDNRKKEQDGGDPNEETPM
Sequence of SSTR1 (P30872 whole entry): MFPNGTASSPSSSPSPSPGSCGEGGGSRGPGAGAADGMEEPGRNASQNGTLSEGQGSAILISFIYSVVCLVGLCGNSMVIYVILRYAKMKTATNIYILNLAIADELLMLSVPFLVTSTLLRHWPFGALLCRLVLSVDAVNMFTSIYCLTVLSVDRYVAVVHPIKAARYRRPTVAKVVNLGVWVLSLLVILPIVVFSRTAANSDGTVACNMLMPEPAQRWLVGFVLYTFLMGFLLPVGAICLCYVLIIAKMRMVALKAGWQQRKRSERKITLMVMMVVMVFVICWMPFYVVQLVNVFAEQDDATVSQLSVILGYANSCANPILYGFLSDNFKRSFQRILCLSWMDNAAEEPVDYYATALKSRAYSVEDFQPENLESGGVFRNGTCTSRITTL
Sequence of GLP2R (O95838 whole entry): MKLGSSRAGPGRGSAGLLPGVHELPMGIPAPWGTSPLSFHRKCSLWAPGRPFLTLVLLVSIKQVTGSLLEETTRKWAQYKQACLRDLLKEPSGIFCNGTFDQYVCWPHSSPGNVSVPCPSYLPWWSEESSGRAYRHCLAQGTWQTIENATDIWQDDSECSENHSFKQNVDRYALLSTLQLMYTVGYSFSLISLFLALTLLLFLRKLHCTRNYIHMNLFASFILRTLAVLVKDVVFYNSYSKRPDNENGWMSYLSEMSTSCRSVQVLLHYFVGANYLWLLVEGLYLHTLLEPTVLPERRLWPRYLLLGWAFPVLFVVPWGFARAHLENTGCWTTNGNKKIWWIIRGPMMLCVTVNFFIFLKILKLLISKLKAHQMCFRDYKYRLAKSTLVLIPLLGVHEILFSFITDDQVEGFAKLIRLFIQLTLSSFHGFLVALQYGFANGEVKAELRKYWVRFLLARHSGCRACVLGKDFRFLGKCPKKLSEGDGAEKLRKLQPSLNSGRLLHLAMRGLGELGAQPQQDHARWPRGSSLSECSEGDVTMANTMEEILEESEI
Sequence of HRH3 (Q9Y5N1 whole entry): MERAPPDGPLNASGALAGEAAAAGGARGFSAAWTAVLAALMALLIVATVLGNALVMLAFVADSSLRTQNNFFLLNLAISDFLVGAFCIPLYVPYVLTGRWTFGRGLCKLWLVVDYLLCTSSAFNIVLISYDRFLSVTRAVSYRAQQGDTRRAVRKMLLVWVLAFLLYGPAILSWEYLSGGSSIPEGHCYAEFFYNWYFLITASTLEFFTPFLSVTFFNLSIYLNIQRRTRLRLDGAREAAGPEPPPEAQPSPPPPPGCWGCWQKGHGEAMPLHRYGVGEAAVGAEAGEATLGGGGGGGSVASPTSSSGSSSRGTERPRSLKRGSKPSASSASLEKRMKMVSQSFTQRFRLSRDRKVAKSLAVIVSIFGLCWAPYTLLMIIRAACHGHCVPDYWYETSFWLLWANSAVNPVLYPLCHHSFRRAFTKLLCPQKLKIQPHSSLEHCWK
Sequence of PROKR1 (Q8TCW9 whole entry): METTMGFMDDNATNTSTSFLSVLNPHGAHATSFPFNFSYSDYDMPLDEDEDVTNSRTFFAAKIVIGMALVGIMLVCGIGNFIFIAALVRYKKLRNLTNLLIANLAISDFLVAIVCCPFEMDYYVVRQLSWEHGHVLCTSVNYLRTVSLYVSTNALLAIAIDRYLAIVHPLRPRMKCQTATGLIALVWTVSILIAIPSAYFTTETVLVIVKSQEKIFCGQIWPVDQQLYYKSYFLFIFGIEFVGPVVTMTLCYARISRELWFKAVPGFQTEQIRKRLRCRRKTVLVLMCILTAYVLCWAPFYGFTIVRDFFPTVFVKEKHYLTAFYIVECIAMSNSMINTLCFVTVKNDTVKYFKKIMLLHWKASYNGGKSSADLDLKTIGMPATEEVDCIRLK
Sequence of CCR10 (P46092 whole entry): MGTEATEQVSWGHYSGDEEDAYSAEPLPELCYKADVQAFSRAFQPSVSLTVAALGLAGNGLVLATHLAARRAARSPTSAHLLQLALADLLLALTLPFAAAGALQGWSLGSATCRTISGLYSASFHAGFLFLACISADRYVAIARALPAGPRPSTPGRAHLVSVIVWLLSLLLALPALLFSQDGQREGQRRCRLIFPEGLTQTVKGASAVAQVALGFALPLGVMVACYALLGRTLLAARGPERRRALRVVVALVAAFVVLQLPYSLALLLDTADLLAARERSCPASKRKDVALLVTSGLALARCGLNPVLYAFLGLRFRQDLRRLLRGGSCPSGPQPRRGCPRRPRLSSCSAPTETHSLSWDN
Sequence of PROKR2 (Q8NFJ6 whole entry): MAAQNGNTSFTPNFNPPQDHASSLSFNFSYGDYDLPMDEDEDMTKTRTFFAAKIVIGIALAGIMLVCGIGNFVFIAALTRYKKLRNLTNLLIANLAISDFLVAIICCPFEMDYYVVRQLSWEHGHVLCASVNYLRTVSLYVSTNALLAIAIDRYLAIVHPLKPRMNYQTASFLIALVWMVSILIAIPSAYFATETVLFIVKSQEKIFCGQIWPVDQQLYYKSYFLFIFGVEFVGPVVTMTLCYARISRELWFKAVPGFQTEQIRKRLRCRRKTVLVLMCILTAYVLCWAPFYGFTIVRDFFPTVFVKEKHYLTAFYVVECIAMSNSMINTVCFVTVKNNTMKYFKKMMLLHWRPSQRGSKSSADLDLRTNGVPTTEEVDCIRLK
Sequence of TACR2 (P21452 whole entry): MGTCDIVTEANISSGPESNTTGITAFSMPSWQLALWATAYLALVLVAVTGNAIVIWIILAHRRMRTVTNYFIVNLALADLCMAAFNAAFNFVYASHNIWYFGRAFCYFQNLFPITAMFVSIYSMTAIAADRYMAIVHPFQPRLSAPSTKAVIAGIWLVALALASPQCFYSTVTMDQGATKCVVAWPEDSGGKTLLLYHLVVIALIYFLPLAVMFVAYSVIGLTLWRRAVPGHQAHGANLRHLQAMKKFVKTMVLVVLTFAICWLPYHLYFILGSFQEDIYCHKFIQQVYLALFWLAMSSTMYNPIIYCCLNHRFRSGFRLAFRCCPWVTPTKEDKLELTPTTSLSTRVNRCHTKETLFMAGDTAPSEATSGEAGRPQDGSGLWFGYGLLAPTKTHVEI
Sequence of MCHR2 (Q969V1 whole entry): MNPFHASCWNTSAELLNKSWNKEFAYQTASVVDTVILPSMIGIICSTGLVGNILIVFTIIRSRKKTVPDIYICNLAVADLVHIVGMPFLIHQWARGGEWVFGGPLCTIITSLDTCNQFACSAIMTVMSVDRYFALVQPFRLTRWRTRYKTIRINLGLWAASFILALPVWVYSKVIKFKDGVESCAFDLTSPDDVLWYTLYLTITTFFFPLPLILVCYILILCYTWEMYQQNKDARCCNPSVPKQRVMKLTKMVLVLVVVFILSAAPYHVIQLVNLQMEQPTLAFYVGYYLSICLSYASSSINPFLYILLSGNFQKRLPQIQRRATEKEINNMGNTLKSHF
Sequence of DRD2L (P14416 whole entry): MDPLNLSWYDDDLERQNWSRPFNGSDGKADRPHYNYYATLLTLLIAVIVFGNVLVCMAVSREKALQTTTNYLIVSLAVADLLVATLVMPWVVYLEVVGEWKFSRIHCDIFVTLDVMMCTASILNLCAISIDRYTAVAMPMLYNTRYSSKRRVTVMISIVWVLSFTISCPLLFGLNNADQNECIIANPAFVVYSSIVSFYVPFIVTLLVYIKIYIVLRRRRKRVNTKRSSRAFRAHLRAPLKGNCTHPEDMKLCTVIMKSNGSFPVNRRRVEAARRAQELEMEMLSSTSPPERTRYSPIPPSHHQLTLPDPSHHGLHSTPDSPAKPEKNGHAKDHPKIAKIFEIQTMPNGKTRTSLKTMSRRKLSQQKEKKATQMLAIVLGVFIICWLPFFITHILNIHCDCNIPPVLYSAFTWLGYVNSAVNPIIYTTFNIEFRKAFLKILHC
Sequence of EDG3 (Q99500 whole entry): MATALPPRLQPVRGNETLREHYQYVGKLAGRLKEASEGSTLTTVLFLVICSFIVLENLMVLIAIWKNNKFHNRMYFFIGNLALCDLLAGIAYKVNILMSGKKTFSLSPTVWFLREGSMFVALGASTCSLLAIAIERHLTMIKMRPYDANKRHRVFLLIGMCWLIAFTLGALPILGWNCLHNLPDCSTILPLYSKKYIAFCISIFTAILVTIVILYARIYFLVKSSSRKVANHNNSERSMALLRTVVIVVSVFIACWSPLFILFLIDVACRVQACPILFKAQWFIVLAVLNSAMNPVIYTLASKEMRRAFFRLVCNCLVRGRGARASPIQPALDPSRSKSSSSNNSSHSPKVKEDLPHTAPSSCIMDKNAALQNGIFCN

SMILES: Cc1c(Cl)cccc1NC(=O)c1sc2nc3c(cc2c1N)C(=O)CCC3 [Compound 1]
- inhibition at 10 µM (CNR2): 16%
- GI50 (LE:HL-60(TB)): 103 nM
- inhibition at 10 µM (CX3CR1): 11%
- inhibition at 10 µM (P2RY6): -17%
- inhibition at 10 µM (DRD2L): -1%
- GI50 (ME:MALME-3M): 36.3 nM
- inhibition at 10 µM (CCR9): 17%
- inhibition at 10 µM (OPRD1): -26%
- inhibition at 10 µM (MLNR): -18%
- GI50 (LC:NCI-H522): 22.9 nM
- inhibition at 10 µM (FSHR): 30%
- GI50 (OV:NCI/ADR-RES): 46.3 nM
- GI50 (LE:MOLT-4): 476 nM
- inhibition at 10 µM (ADRB1): -27%
- GI50 (ME:UACC-62): 50.3 nM
- GI50 (ME:MDA-MB-435): 18.7 nM
- inhibition at 10 µM (UTR2): 10%
- inhibition at 10 µM (PROKR2): -3%
- inhibition at 10 µM (CCR10): -49%
- GI50 (BR:HS 578T): 48.2 nM
- inhibition at 10 µM (PROKR1): 6%
- inhibition at 10 µM (GLP2R): 16%
- inhibition at 10 µM (HRH3): -14%
- GI50 (CO:HCT-116): 66.8 nM
- inhibition at 10 µM (CCKBR): 12%
- inhibition at 10 µM (CHRM1): 0%
- inhibition at 10 µM (CRTH2): 13%
- inhibition at 10 µM (P2RY12): -25%
- % Inhibition (P2RY12; antagonist mode, 10 µM): no antagonist modulation was observed
- inhibition at 10 µM (CALCR-RAMP2): 0%
- inhibition at 10 µM (PTGER2): -5%
- inhibition at 10 µM (EDG3): -2%
- inhibition at 10 µM (MCHR2): -7%
- inhibition at 10 µM (CALCR): -18%
- inhibition at 10 µM (AVPR1A): -12%
- inhibition at 10 µM (OPRK1): -162%
- inhibition at 10 µM (VIPR2): 12%
- inhibition at 10 µM (SSTR1): -62%
- GI50 (CO:HT29): 49 nM
- inhibition at 10 µM (TACR2): 14%
- inhibition at 10 µM (TACR1): -3%
